The text below walks through data of US7649001B2.

Data set [1] addresses T1, LNCaP type mutant androgen receptor (AR) (Homo sapiens, UniProt P10275, T878A).
T1 sequence (P10275 1-920 T878A): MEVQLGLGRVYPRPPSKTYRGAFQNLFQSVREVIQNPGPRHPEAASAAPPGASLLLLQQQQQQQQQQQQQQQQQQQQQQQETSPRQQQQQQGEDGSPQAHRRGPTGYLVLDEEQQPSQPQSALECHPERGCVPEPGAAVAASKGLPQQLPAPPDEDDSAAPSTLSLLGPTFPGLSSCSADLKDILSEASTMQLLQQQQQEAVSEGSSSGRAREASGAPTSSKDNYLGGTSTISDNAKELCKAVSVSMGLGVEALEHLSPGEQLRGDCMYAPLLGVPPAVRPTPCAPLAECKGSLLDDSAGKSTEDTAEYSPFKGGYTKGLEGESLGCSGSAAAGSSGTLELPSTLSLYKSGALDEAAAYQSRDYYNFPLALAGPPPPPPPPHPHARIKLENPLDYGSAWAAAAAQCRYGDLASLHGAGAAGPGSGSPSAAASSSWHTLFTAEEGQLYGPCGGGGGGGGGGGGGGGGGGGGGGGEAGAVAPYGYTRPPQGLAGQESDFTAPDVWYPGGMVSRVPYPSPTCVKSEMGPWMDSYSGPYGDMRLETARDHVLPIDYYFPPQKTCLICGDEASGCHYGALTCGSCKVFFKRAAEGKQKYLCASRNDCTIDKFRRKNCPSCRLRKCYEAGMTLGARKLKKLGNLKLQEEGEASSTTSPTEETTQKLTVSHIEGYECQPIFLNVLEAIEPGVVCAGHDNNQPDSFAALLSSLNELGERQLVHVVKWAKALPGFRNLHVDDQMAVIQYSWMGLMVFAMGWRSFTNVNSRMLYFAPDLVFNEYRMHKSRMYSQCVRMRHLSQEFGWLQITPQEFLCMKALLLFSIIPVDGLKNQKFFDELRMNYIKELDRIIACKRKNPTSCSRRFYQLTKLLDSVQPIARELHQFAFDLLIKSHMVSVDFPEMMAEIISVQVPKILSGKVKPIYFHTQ
The data set is described as follows: AR-binding inhibition test (LNCaP type). Particulars: read-out: Inhibition rate (%) at 100 nM LNCaP type.

For data set [2], the system named is Human prostate cancer cell strain LNCaP-FGC. In words: cells. It is filed as cell-based. Particulars: 72 h, read-out: Promotion rate (%) on PSA production at 100 nM.
Data set [3] has as its target T2, wild type androgen receptor (AR) (Homo sapiens, UniProt P10275).
T2 sequence (P10275 1-920): T1 sequence (P10275 1-920 T878A) with A878T
The data set is described as follows: AR-binding inhibition test (wild type). The settings on record: read-out: Inhibition rate (%) at 100 nM Wild type.

Molecules are shown by their SMILES. Residue numbers refer to the chain shown, from its start. Where a name gives a salt, the structure may show the parent alone.

For orientation: inhibition means the change of the read-out against control, counted positive when it falls. With `N#Cc1ccc(N2CCC(CCO)C2)c2ccccc12` (centres unmarked) [Compound 141, 4-[3-(2-hydroxyethyl)-1-pyrrolidinyl]-1-naphthonitrile], the values for the inhibition at 0.1 µM in data set [1] and in data set [3] were 101% and 96%, respectively. Besides, in data set [2], the activation at 0.1 µM turned out to be 87%.
For `COC[C@H]1CCCN1c1ccc(C#N)c2ccccc12` [Compound 45, 4-[(2R)-2-(methoxymethyl)pyrrolidin-1-yl]-1-naphthonitrile hydrochloride], the figures for the inhibition at 0.1 µM in data set [1] and in data set [3] were 110% and 105%, respectively.
With `N#Cc1ccc(N2CCCCC2)c2ccccc12` [Compound 3, 4-(1-piperidinyl)-1-naphthonitrile], the inhibition at 0.1 µM in data set [1] and in data set [3] was 97% each time. In addition, in data set [2], the activation at 0.1 µM was 90%.
Turning to `C[C@H]1[C@@H](CO)CCN1c1ccc(C#N)c2ccccc12` [Compound 107, 4-[(2S,3S)-3-(hydroxymethyl)-2-methyl-1-pyrrolidinyl]-1-naphthonitrile], the figures for the inhibition at 0.1 µM in data set [1] and in data set [3] were 93% and 95%, respectively. Besides, the activation at 0.1 µM in data set [2] was determined as 95%.
As to `C[C@H]1[C@H](O)CCN1c1ccc(C#N)c2ccccc12` [Compound 113, 4-[(2S,3R)-3-hydroxy-2-methyl-1-pyrrolidinyl]-1-naphthonitrile], the values for the inhibition at 0.1 µM in data set [1] and in data set [3] were 98% and 97%, respectively. Besides, the activation at 0.1 µM in data set [2] was determined as 88%.
Take `N#Cc1ccc(N2CCC(F)C2)c2ccccc12` (centres unmarked) [Compound 99, 4-(3-fluoro-1-pyrrolidinyl)-1-naphthonitrile]: the inhibition at 0.1 µM was found to be 92% in data set [1] and 98% in data set [3]. Besides, in data set [2], the activation at 0.1 µM came out at 83%.
What is called melting point is the temperature of the solid-liquid transition. The molecule `COC[C@H]1CCCN1c1ccc(C#N)c2ccccc12` (as salt: hydrochloride) [Compound 45, 4-[(2R)-2-(methoxymethyl)pyrrolidin-1-yl]-1-naphthonitrile hydrochloride] showed a melting point of 88 to 89 °C.
Same read-out and setting: with `CO[C@@H]1C[C@H](C)N(c2ccc(C#N)c3ccccc23)C1` the figure was 88 to 89 °C.
Consider `C[C@H]1[C@@H](O)CCN1c1ccc(C#N)c2ccccc12` [Compound 116, 4-[(2S,3S)-3-hydroxy-2-methyl-1-pyrrolidinyl]-1-naphthonitrile], for which the inhibition at 0.1 µM is 94% in data set [1] and 99% in data set [3]. Moreover, in data set [2], the activation at 0.1 µM stood at 84%.
Taken in the same sequence, the figures for `N#Cc1ccc(N2CCC(CO)C2)c2ccccc12` (centres unmarked) [Compound 50, 4-[3-(hydroxymethyl)pyrrolidin-1-yl]-1-naphthonitrile hydrochloride] were 102%, 91% and 88%.
Regarding `CC[C@@H]1CCCN1c1ccc(C#N)c2ccccc12` [Compound 84, 4-[(2R)-2-ethyl-1-pyrrolidinyl]-1-naphthonitrile], the results for the inhibition at 0.1 µM in data set [1] and in data set [3] were 93% and 88%, respectively.
Turning to `C=C[C@@H]1CCCN1c1ccc(C#N)c2ccccc12` [Compound 82, 4-[(2S)-2-vinyl-1-pyrrolidinyl]-1-naphthonitrile], the inhibition at 0.1 µM in data set [1] is 94%; in data set [3] it was 85%.
`C=C[C@H]1CCCN1c1ccc(C#N)c2ccccc12` [Compound 81, 4-[(2R)-2-vinyl-1-pyrrolidinyl]-1-naphthonitrile]: the values for the inhibition at 0.1 µM in data set [1] and in data set [3] were 100% and 104%, respectively. Moreover, the activation at 0.1 µM in data set [2] was found to be 98%.
On to `C[C@H]1[C@@H](O)CCN1c1ccc(C#N)c2sccc12` [Compound 118, 4-[(2S,3S)-3-hydroxy-2-methyl-1-pyrrolidinyl]-1-benzothiophene-7-carbonitrile], for which the inhibition at 0.1 µM in data set [1] came to 95%; in data set [3] it was 96%. For the same molecule, the activation at 0.1 µM in data set [2] was found to be 88%.
Taken in the same sequence, the figures for `CC1CCCN1c1ccc(C#N)c2ccccc12` (centres unmarked) [Compound 47, 4-(2-methylpyrrolidin-1-yl)-1-naphthonitrile hydrochloride] were 116%, 116% and 88%.
Taken in the same sequence, the figures for `N#Cc1ccc(N2CCCC(CO)C2)c2ccccc12` (centres unmarked) [Compound 19, 4-[3-(hydroxymethyl)-1-piperidinyl]-1-naphthonitrile] were 91%, 75% and 70%.
On to `C[C@H]1CCCN1c1ccc(C#N)c2ccccc12` [Compound 85, 4-[(2S)-2-methyl-1-pyrrolidinyl]-1-naphthonitrile], for which the inhibition at 0.1 µM in data set [1] was found to be 99%; in data set [3], 95%. Further, in data set [2], the activation at 0.1 µM was 92%.
Taken in the same sequence, the figures for `CC1CCCN1c1ccc(C#N)c2sccc12` (centres unmarked) [Compound 76, 4-(2-methyl-1-pyrrolidinyl)-1-benzothiophene-7-carbonitrile] were 97%, 102% and 85%.
As to `C[C@H]1[C@@H](C(N)=O)CCN1c1ccc(C#N)c2ccccc12`, the melting point fell in the range of 204 to 206 °C.
Same read-out and setting: to `N#Cc1c(Br)cc(N2CCCCC2)c2ccccc12` belongs 179 to 180 °C.
For the molecule `CC1(CO)CCCN(c2ccc(C#N)c3ccccc23)C1` (centres unmarked) [Compound 56, 4-[3-(hydroxymethyl)-3-methyl-1-piperidinyl]-1-naphthonitrile], the inhibition at 0.1 µM in data set [1] is 91%; in data set [3], 80%. For the same molecule, the activation at 0.1 µM in data set [2] was 96%.
In the same order, the values of `N#Cc1ccc(N2CCCCCC2)c2ccccc12` [Compound 10, 4-(1-azepaneyl)-1-naphthonitrile] are 144%, 112% and 75%.
As for `C[C@H]1[C@@H](C#N)CCN1c1ccc(C#N)c2ccccc12`, the melting point was 143 to 145 °C.
The same measure, in the same setting: with `CN1C(=O)CCN1c1ccc(C#N)c2ccccc12` the figure was 192 to 193 °C.
Take `CC(C)[C@H]1CCCN1c1ccc(C#N)c2ccccc12` [Compound 144, 4-[(2R)-2-isopropyl-1-pyrrolidinyl]-1-naphthonitrile]: the results for the inhibition at 0.1 µM in data set [1] and in data set [3] were 102% and 103%, respectively. The activation at 0.1 µM in data set [2] is 87%.
Taken in the same sequence, the figures for `CO[C@@H]1CCN(c2ccc(C#N)c3ccccc23)[C@H]1C` [Compound 139, 4-[(2S,3R)-3-methoxy-2-methyl-1-pyrrolidinyl]-1-naphthonitrile] were 99%, 95% and 73%.
As to `N#Cc1ccc(N2CCCC2)c2ccccc12` [Compound 1, 4-(1-pyrrolidinyl)-1-naphthonitrile], the figures for the inhibition at 0.1 µM in data set [1] and in data set [3] were 78% and 88%, respectively.
For `CC[C@H]1CCCN1c1ccc(C#N)c2ccccc12` [Compound 83, 4-[(2S)-2-ethyl-1-pyrrolidinyl]-1-naphthonitrile], the inhibition at 0.1 µM in data set [1] was 102%; in data set [3] it was 95%. The activation at 0.1 µM in data set [2] amounted to 95%.
